Source: patent US6849612B2, “Oligonucleotide modulation of cell adhesion” (ISIS Pharmaceuticals, Inc., priority 1993, dated 2005)
Strand notation (5' to 3'): a small letter for the sugar, then the base; units joined by * are phosphorothioate-linked, units joined directly phosphodiester-linked; [ ] holds rarer units or linkages, { } end groups; capitals alone tell only the bases. d = 2'-deoxy (DNA)

Legend:
ICAM-1 [1] = test: ELISA of ICAM-1 cell surface expression in oligonucleotide-pretreated, cytokine-stimulated HUVEC; assay type: cell-based, human
ICAM-1 [2] = test: ELISA of ICAM-1 expression in A431 cells; assay type: cell-based; conditions: human epidermal carcinoma A431 cells
Protocol: (§1) Expression of ICAM-1, VCAM-1 and ELAM-1 on the surface of cells can be quantitated using specific monoclonal antibodies in an ELISA. Cells are grown to confluence in 96 well microtiter plates. The cells are stimulated with either interleukin-1 or tumor necrosis factor for 4 to 8 hours to quantitate ELAM-1 and 8 to 24 hours to quantitate ICAM-1 and VCAM-1. Following the appropriate incubation time with the cytokine, the cells are gently washed three times with a buffered isotonic solution containing calcium and magnesium such as Dulbecco's phosphate buffered saline (D-PBS). The cells are then directly fixed on the microtiter plate with 1 to 2% paraformaldehyde diluted in D-PBS for 20 minutes at 25° C. The cells are washed again with D-PBS three times. Nonspecific binding sites on the microtiter plate are blocked with 2% bovine serum albumin in D-PBS for 1 hour at 37° C. Cells are incubated with the appropriate monoclonal antibody diluted in blocking solution for 1 hour at 37° C. Unbound antibody is removed by washing the cells three times with D-PBS. Antibody bound to the cells is detected by incubation with a 1:1000 dilution of biotinylated goat anti-mouse IgG (Bethesda Research Laboratories, Gaithersburg, Md.) in blocking solution for 1 hour at 37° C. Cells are washed three times with D-PBS and then incubated with a 1:1000 dilution of streptavidin conjugated to β-galactosidase (Bethesda Research Laboratories) for 1 hour at 37° C. The cells are washed three times with D-PBS for 5 minutes each. The amount of β-galactosidase bound to the specific monoclonal antibody is determined by developing the plate in a solution of 3.3 mM chlorophenolred-β-D-galactopyranoside, 50 mM sodium phosphate, 1.5 mM MgCl2; pH=7.2 for 2 to 15 minutes at 37° C. The concentration of the product is determined by measuring the absorbance at 575 nm in an ELISA microtiter plate reader. […]
(§2) Cells grown in 96-well plates were washed three times with Opti-MEM (GIBCO, Grand Island, N.Y.) prewarmed to 37° C. […] ICAM-1 expression was determined as described in Example 1. […]

ICAM-1 mRNA = test: Northern blot of ICAM-1 mRNA in C8161 cells; assay type: cell-based, human; conditions: Northern blot analysis
Protocol: (§3) ICAM-1 expression on the cell surface was measured by ELISA. Cells were treated with increasing concentrations of antisense oligonucleotides in the presence of 15 μg/ml Lipofectin for 4 hours at 37° C. ICAM-1 expression was induced by incubation with 5 ng/ml TNF-α for 16 hours. Cells were washed 3× in DPBS and fixed for 20 minutes in 2% formaldehyde. Cells were washed in DPBS, blocked with 2% BSA for 1 hour at 37° C. and incubated with ICAM-1 monoclonal antibody 84H10 (AMAC, Inc., Westbrook, Me.). Detection of bound antibody was determined by incubation with a biotinylated goat anti-mouse IgG followed by incubation with […] streptavidin and developed with chlorophenol red-β-D-galactopyranoside and quantified by absorbance at 575 nm. ICAM-1 mRNA levels were measured by Northern blot analysis.

ICAM-1 [3] = test: ELISA of ICAM-1 cell surface expression in C8161 human melanoma cells; assay type: cell-based; conditions: 15 μg/ml Lipofectin, 5 ng/ml TNF-α 16 hours
Protocol: as §3
The data were expressed as percentage of control activity, calculated as follows: (ICAM-1 expression for oligonucleotide-treated, cytokine-induced cells)−(basal ICAM-1 expression)/(ICAM-1 cytokine-induced expression)−(basal ICAM-1 expression)×100.

ICAM-1 [4] = test: ELISA of ICAM-1 expression in primary human keratinocytes; assay type: cell-based
Protocol: as §1, §2

[5] = tested on: complementary DNA sequences (ICAM-1 target sites); test: Tm of oligonucleotide hybridized to complementary DNA; assay type: binding, human; conditions: as E23
Description: The antisense oligonucleotides (synthesized as phosphorothioates) were hybridized to their complementary DNA sequences (synthesized as phosphodiesters). […] Tm's and free energies of duplex formation were obtained from fits of data to a two-state model with linear sloping baselines ([…]. and D. H. […] Results are averages of at least three experiments.

Substance	inhibition of ICAM-1 expression (ICAM-1 [1]; 0.1 μM oligonucleotide, HUVEC, 8 μM DOTMA, interleukin-1β 5 units/ml)	inhibition of ICAM-1 expression (ICAM-1 [1]; 1 μM oligonucleotide, HUVEC, 8 μM DOTMA, interleukin-1β 5 units/ml)	inhibition of ICAM-1 expression (ICAM-1 [1]; 1 μM, HUVEC stimulated with increasing concentrations of tumor necrosis factor and interleukin-1)	effect on ICAM-1 expression after prehybridization to the sense strand (ICAM-1 [1]; COMPOUND 2 prehybridized to COMPOUND 3 prior to addition to the cells)	inhibition of ICAM-1 expression (ICAM-1 [2])	ICAM-1 mRNA levels (ICAM-1 mRNA)	cell surface expression of ICAM-1 (ICAM-1 [3])	inhibition of ICAM-1 expression (ICAM-1 [4])	Tm relative to other oligonucleotides [5]
ISIS 1570: phosphorothioate, human ICAM-1 AUG Codon (64-81), SEQ ID NO 1, TGGGAGCCATAGCGAGGC (antisense dT*dG*dG*dG*dA*dG*dC*dC*dA*dT*dA*dG*dC*dG*dA*dG*dG*dC)	70%	90%	inhibits expression of ICAM-1	attenuated	inhibit ICAM-1 expression	decreased ICAM-1 mRNA levels only slightly	decreased cell surface expression of ICAM-1	inhibit ICAM-1 expression	–
ISIS 1939: P=S, human ICAM-1 3′-Untranslated (1952-1971), SEQ ID NO 15, CCCCCACCACTTCCCCTCTC (antisense dC*dC*dC*dC*dC*dA*dC*dC*dA*dC*dT*dT*dC*dC*dC*dC*dT*dC*dT*dC)	–	–	–	–	inhibit ICAM-1 expression	markedly reduced	decreased cell surface expression of ICAM-1	inhibit ICAM-1 expression	lower than that of the majority of the other oligonucleotides
